From US20080234266A1, “Squaric Acid Derivatives II” (priority 2005, published 2008)

What follows are molecules tested against T1, CHK1 kinase (Homo sapiens, UniProt O14757) (assay: Flashplate method (CHK1), measurement of the CHK1 kinase activity). Conditions: class symbols; 'Affinity to receptors'.
T1 construct: glutathione S-transferase (GST); made in house; host or cells: Sf21 insect cells (S. frugiperda), baculovirus
T1 sequence (O14757 1-476): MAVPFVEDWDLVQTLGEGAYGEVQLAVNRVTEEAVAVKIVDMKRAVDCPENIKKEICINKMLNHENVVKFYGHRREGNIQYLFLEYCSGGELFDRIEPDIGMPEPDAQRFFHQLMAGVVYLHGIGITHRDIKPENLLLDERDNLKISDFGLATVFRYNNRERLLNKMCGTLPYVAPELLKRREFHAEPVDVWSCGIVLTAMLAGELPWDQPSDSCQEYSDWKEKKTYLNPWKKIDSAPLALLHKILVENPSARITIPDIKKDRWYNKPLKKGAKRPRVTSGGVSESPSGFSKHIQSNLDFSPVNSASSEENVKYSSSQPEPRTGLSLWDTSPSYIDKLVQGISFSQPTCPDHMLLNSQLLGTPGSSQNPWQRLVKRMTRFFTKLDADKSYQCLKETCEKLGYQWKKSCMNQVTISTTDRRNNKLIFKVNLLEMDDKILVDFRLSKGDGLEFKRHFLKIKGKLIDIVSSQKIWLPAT
Type: biochemical
Procedure: CHK1 kinase is expressed for the purposes of protein production in insect cells (Sf21; S. frugiperda) and subsequent purification by affinity chromatography as fusion protein with glutathione S-transferase in a baculovirus expression vector. The cultivation, infection and digestion of the cells as well as the purification of the fusion protein by column chromatography are carried out in accordance with manufacturer-oriented generic working instructions.
The kinase activity is measured using various available measurement systems. In the scintillation proximity method (Sorg et al., J. of. Biomolecular Screening, 2002, 7, 11-19), the flashplate method or the filter binding test, the radioactive phosphorylation of a protein or peptide as substrate is measured using radioactively labelled ATP (γ^32P-ATP, (γ^33P-ATP). In the case of the presence of an inhibitory compound, a reduced radioactive signal, or none at all, can be detected. Furthermore, homogeneous time-resolved fluorescence resonance energy transfer (HTR-FRET) and fluorescence polarisation (FP) technologies are useful as assay methods (Sills et al., J. of Biomolecular Screening, 2002, 191-214).
The test plates used are 384-well streptavidin-coated Flashplates Plus® from Perkin Elmer (Cat.No. SMP410A001PK). The assay plate is equilibrated with 75 μl of assay buffer per well 30 min before commencement of the experiment. The buffer is sucked out before commencement of the experiment, and the components of the kinase reaction described below are pipetted onto the plate.
CHK1 kinase, a biotinylated substrate peptide (for example CHKtide: […]), is incubated with radioactively labelled ATP in the presence and absence of test substances at 30° Celsius and a total volume of 50 μl. The reaction is terminated using 25 μl of a 0.2 M EDTA solution. After incubation for 30 min at room temperature, the supernatants are filtered off with suction, and the wells are washed three times with 100 μl of 0.9% NaCl solution each time. The measurement of the bound radioactivity is carried out by means of a scintillation measuring instrument (Topcount NXT, Perkin-Elmer).
The full value used is the inhibitor-free kinase reaction. This should be approximately in the range 3000-4000 cpm. The pharmacological zero value used is staurosporin in a final concentration of 0.1 μM. The inhibitory values (IC50) are determined using the program RS1_MTS ( ).
Kinase reaction conditions per well:
0.15 μg of CHKtide ([…])
50 μl total volume (1-fold assay buffer reaction conditions)
Solutions used: • assay buffer:
0.1 mM Titriplex VI (EGTA
10 mM magnesium acetate 0.1% mercaptoethanol
pH=7.5 (to be set using hydrochloric acid) Bovine serum albumin (final concentration 0.1%) is not added until just before use. • stop solution:
0.2 M TitriplexIII (EDTA)
• γ^33P-ATP (Perkin-Elmer) • CHK1 kinase preparations: specific activity>50 U/mg • CHKtide solution: biotinylated peptide substrate (Biotrend) stored as stock solution (concentration 0.15 mg/ml).
For “3-(1H-benzimidazol-5-ylamino)-4-[(S)-1-(3-hydroxyphenyl)ethylamino]cyclobut-3-ene-1,2-dione [Compound A4]”, the IC50 was greater than 1000 nM. “3-(3-hydroxybenzylamino)-4-(5-methyl-imidazo[1,2-a]pyridin-6-ylamino)cyclobut-3-ene-1,2-dione [Compound A56]” showed an IC50 of less than 1000 nM. “3-(8-bromoimidazo[1,2-a]pyridin-6-ylamino)-4-(3-hydroxybenzylamino)cyclobut-3-ene-1,2-dione [Compound A60]” gave an IC50 of less than 1000 nM. Work on “3-(8-bromoimidazo[1,2-a]pyridin-6-ylamino)-4-[(R)-1-(3-methoxyphenyl)ethylamino]-cyclobut-3-ene-1,2-dione [Compound A63]” yielded an IC50 greater than 1000 nM. “3-[3-(2-methoxyethyl)-3H-benzimidazol-5-ylamino]-4-[(R)-1-(3-methoxyphenyl)ethyl-amino]cyclobut-3-ene-1,2-dione [Compound A67]” gave an IC50 greater than 1000 nM. Work on “3-[(R)-1-(3-methoxyphenyl)ethylamino]-4-(5-methylimidazo[1,2-a]pyridin-6-ylamino)-cyclobut-3-ene-1,2-dione [Compound A58]” yielded an IC50 greater than 1000 nM. “3-[(R)-1-(3-methoxyphenyl)ethylamino]-4-(7-methylimidazo[1,2-a]pyridin-6-ylamino)-cyclobut-3-ene-1,2-dione [Compound A57]” was tested, and the IC50 was greater than 1000 nM. “3-[(R)-1-(3-methoxyphenyl)ethylamino]-4-(8-methylimidazo[1,2-a]pyridin-6-ylamino)-cyclobut-3-ene-1,2-dione [Compound A59]” was tested, and the IC50 was greater than 1000 nM. In the case of CC(Nc1c(Nc2ccc3[nH]ncc3c2)c(=O)c1=O)c1cccc(NC(N)=O)c1 (racemic) [Compound A145, 3-(1H-indazol-5-ylamino)-4-[(R,S)-1-(3-ureidophenyl)ethylamino]cyclobut-3-ene-1,2-dione], the IC50 is reported as greater than 1000 nM. O=c1c(NCc2cccc(O)c2)c(Nc2ccc3[nH]cnc3c2)c1=O [Compound A1, 3-(1H-benzimidazol-5-ylamino)-4-(3-hydroxybenzylamino)cyclobut-3-ene-1,2-dione] showed an IC50 of less than 100 nM. In the case of COc1cccc([C@@H](C)Nc2c(Nc3ccc4[nH]cnc4c3)c(=O)c2=O)c1 [Compound A2, 3-(1H-benzimidazol-5-ylamino)-4-[(R)-1-(3-methoxyphenyl)ethylamino]cyclobut-3-ene-1,2-dione], the IC50 is reported as less than 1000 nM. With C[C@@H](Nc1c(Nc2ccc3[nH]cnc3c2)c(=O)c1=O)c1cccc(O)c1 [Compound A3, 3-(1H-benzimidazol-5-ylamino)-4-[(R)-1-(3-hydroxyphenyl)ethylamino]cyclobut-3-ene-1,2-dione] the IC50 was less than 100 nM. NS(=O)(=O)c1cccc(CNc2c(Nc3ccc4[nH]cnc4c3)c(=O)c2=O)c1 [Compound A6, 3-(1H-benzimidazol-5-ylamino)-4-(3-amino-sulfonylbenzylamino)cyclobut-3-ene-1,2-dione] gave an IC50 of less than 1000 nM. O=c1c(NCc2cccc(O)c2)c(Nc2ccc3[nH]c(C(F)(F)F)nc3c2)c1=O [Compound A10, 3-(1H-benzimidazol-2-trifluoromethyl-5-yl-amino)-4-(3-hydroxybenzylamino)cyclobut-3-ene-1,2-dione] gave an IC50 greater than 1000 nM. With O=c1c(NCc2cccc(O)c2)c(Nc2cc3nc[nH]c3cc2Cl)c1=O [Compound A12, 3-(1H-benzimidazol-6-chloro-5-ylamino)-4-(3-hydroxybenzylamino)cyclobut-3-ene-1,2-dione] the IC50 was greater than 1000 nM. With O=c1c(NCc2cccc(O)c2)c(Nc2ccc3ncsc3c2)c1=O [Compound A14, 3-(benzothiazol-6-ylamino)-4-(3-hydroxy-benzylamino)cyclobut-3-ene-1,2-dione] the IC50 was less than 1000 nM. Molecule O=c1c(NCc2cccc(O)c2)c(NCc2ccc3[nH]nnc3c2)c1=O [Compound A15, 3-(1H-benzotriazol-5-ylmethylamino)-4-(3-hydroxybenzylamino)cyclobut-3-ene-1,2-dione] has an IC50 of less than 1000 nM. O=c1c(NCc2cccc(O)c2)c(Nc2ccc3cc[nH]c3c2)c1=O [Compound A28, 3-(1H-indol-6-ylamino)-4-(3-hydroxybenzyl-amino)cyclobut-3-ene-1,2-dione] was tested, and the IC50 was greater than 1000 nM. Molecule O=c1c(NCc2cccc(O)c2)c(Nc2ccc3[nH]ccc3c2)c1=O [Compound A29, 3-(1H-indol-5-ylamino)-4-(3-hydroxybenzyl-amino)cyclobut-3-ene-1,2-dione] has an IC50 greater than 1000 nM. O=c1[nH]c2ccc(Nc3c(NCc4cccc(O)c4)c(=O)c3=O)cc2[nH]1 [Compound A30, 4-(2-oxo-2,3-dihydro-1H-benzimidazol-5-yl-amino)-3-(3-hydroxybenzylamino)cyclobut-3-ene-1,2-dione] gave an IC50 greater than 1000 nM. With O=c1c(NCc2cccc(F)c2)c(Nc2ccc3[nH]cnc3c2)c1=O [Compound A31, 3-(1H-benzimidazol-5-ylamino)-4-(3-fluoro-benzylamino)cyclobut-3-ene-1,2-dione] the IC50 was greater than 1000 nM. In the case of NC(=O)c1c[nH]c2ccc(Nc3c(NCc4cccc(O)c4)c(=O)c3=O)cc12 [Compound A32, 3-(3-aminocarbonyl-1H-indol-5-ylamino)-4-(3-hydroxybenzylamino)cyclobut-3-ene-1,2-dione], the IC50 is reported as greater than 1000 nM. Work on O=c1c(NCc2cccc(Cl)c2)c(Nc2ccc3[nH]cnc3c2)c1=O [Compound A33, 3-(1H-benzimidazol-5-ylamino)-4-(3-chloro-benzylamino)cyclobut-3-ene-1,2-dione] yielded an IC50 greater than 1000 nM. O=c1c(NCc2cccc(-n3cccc3)c2)c(Nc2ccc3[nH]cnc3c2)c1=O [Compound A35, 3-(1H-benzimidazol-5-ylamino)-4-(3-pyrrol-1-ylbenzylamino)cyclobut-3-ene-1,2-dione] gave an IC50 greater than 1000 nM. O=c1c(NCc2cc(Br)ccc2O)c(Nc2ccc3[nH]cnc3c2)c1=O [Compound A36, 3-(1H-benzimidazol-5-ylamino)-4-(3-bromo-6-hydroxybenzylamino)cyclobut-3-ene-1,2-dione] was tested, and the IC50 was greater than 1000 nM. With O=c1c(NCc2cccc(C(F)(F)F)c2)c(Nc2ccc3[nH]cnc3c2)c1=O [Compound A37, 3-(1H-benzimidazol-5-ylamino)-4-(3-trifluoro-methylbenzylamino)cyclobut-3-ene-1,2-dione] the IC50 was greater than 1000 nM. CN(Cc1cccc(O)c1)c1c(Nc2ccc3[nH]cnc3c2)c(=O)c1=O [Compound A38, 3-(1H-benzimidazol-5-ylamino)-4-[(3-hydroxybenzyl)methylamino]cyclobut-3-ene-1,2-dione] gave an IC50 of less than 1000 nM. In the case of Cc1cc2cc(Nc3c(NCc4cccc(O)c4)c(=O)c3=O)ccc2[nH]1 [Compound A39, 3-(2-methyl-1H-indol-5-ylamino)-4-(3-hydroxybenzylamino)cyclobut-3-ene-1,2-dione], the IC50 is reported as greater than 1000 nM. With O=c1c(NCc2cccc(O)c2)c(Nc2ccc3[nH]c(S)nc3c2)c1=O [Compound A40, 3-(2-mercapto-1H-benzimidazol-5-ylamino)-4-(3-hydroxybenzylamino)cyclobut-3-ene-1,2-dione] the IC50 was greater than 1000 nM. CC(C)(C)NS(=O)(=O)c1cccc(CNc2c(Nc3ccc4[nH]cnc4c3)c(=O)c2=O)c1 [Compound A41, 3-(1H-benzimidazol-5-ylamino)-4-[3-(tert-butylaminosulfonyl)benzylamino]cyclobut-3-ene-1,2-dione] was tested, and the IC50 was greater than 1000 nM. Molecule O=c1c(NCc2cccc(O)c2)c(Nc2ccc3c(c2)NCC3)c1=O [Compound A42, 3-(2,3-dihydro-1 H-indol-6-ylamino)-4-(3-hydroxybenzylamino)cyclobut-3-ene-1,2-dione] has an IC50 greater than 1000 nM.
